According to patent US8975265B2, “Substituted imidazo[1,2-a]pyrimidines and —pyridines” (Bayer Intellectual Property GmbH, priority 2010, dated 2015):
pIC50: −log10 of the molar value.

How the values were obtained:
[1] = target: His-tagged human recombinant kinase full-length Akt1 (Homo sapiens (Human), UniProt P31749); assay: Akt1 kinase assay (TR-FRET); type: biochemical; details: 10 μM ATP; read-out: Akt1, median IC50
Experimental: Biological Assay 1.0: Akt1 Kinase Assay
Akt1 inhibitory activity of compounds of the present invention was quantified employing the Akt1 TR-FRET assay as described in the following paragraphs.
As substrate for the kinase reaction the biotinylated peptide biotin-Ahx-[…] (C-terminus in amide form) was used which can be purchased e.g. from the company Biosynthan GmbH (Berlin-Buch, Germany).
For the assay 50 nl of a 100 fold concentrated solution of the test compound in DMSO was pipetted into a black low volume 384 well microtiter plate (Greiner Bio-One, Frickenhausen, Germany), 2 μl of a solution of Akt1 in assay buffer [50 mM TRIS/HCl pH 7.5, 5 mM MgCl2, 1 mM dithiothreitol, 0.02% (v/v) Triton X-100 (Sigma)] were added and the mixture was incubated for 15 min at 22° C. to allow prebinding of the test compounds to the enzyme before the start of the kinase reaction. […] The concentration of Akt1 in the assay was adjusted depending of the activity of the enzyme lot and was chosen appropriate to have the assay in the linear range, typical enzyme concentrations were in the range of about 0.05 ng/μl (final conc. in the 5 μl assay volume).
The resulting mixture was incubated 1 h at 22° C. to allow the binding of the biotinylated phosphorylated peptide to the streptavidine-XL665 and the antibodies. Subsequently the amount of phosphorylated substrate was evaluated by measurement of the resonance energy transfer from the anti-mouse-IgG-Eu-Chelate to the streptavidine-XL665.

[2] = system: KPL-4 breast cancer cell line; assay: Tumor cell proliferation assay (CellTiter-Glo, 72 h), KPL-4; type: cell-based; details: KPL4, 72h drug exposure
Experimental: Biological Assay 4.0: Tumor Cell Proliferation Assays
Compounds were tested in a cell-based assay that measures the capacity of the compounds to inhibit tumour cell proliferation following a 72h drug exposure. Cell viability is determined using CellTiter-Glow® (CTG, Promega, cat# G7571/2/3). The CellTiter-Glo® Luminescent Cell Viability Assay is a homogeneous method to determine the number of viable cells in culture. Detection is based on using the luciferase reaction to measure the amount of ATP from viable cells. The amount of ATP in cells correlates with cell viability. Within minutes after a loss of membrane integrity, cells lose the ability to synthesize ATP, and endogenous ATPases destroy any remaining ATP; thus the levels of ATP fall precipitously.
For each cell line assayed, cells were plated onto a separate plate for determination of […] at t=0 hour and t=72 hour time points. Following overnight incubation at 37° C., chemiluminescence values for the t=0 samples were determined after adding 10 μl medium and 100 μl CTG solution according to manufacture protocol. Plates for the t=72 hour time points were treated with compounds diluted into growth medium at ten times final concentration added in 10 μL to the cell culture plate. Cells were then incubated for 72 hours at 37° C. Chemiluminescence values for the t=72 hour samples were determined. […] Experiments were controlled using a reference compound as standard.

[3] = system: p-AKT1/2/3-S473 in KPL4 breast tumour cell line; assay: Cellular p-AKT1/2/3-S473 assay; type: cell-based; details: KPL4 breast tumour cell line, 2 hours treatment; read-out: pAKT-S743 median IC50
Experimental: The molecular mechanism of action was investigated in a set of experiments to assess the inhibition of the PI3K-AKT-mTOR pathway in responsive cell lines such as KPL4 breast tumour cell line (PIK3CAH1047R, HER20/E and hormone independent). The phospho-substrates of PI3K-AKT-mTOR axis were used as the read-outs to reflect pathway inhibition. Cells were seeded at 60-80% confluency per well in 96-well cell culture plates. After overnight incubation at 37° C. 5% CO2, cells were treated with compounds and vehicle at 37° C. for 2 hours. […] All measurements where at least done in duplicates and confirmed by independent repetition.
Alternatively pAKT-S473 was measured using the “Akt Duplex” of the MULTI-SPOT® Assay System (Fa. Meso Scale Discovery, Cat# N41100B-1) following manufacturers instructions. Each assay used 20 μg of protein extract and measured total AKT and p-AKT content simultaneously in one well. All measurements where at least done in duplicates and confirmed by independent repetition. Values for P-AKT are expressed as percentage of P-AKT level compared to total-AKT content of the extracts.

Chain of His-tagged human recombinant kinase full-length Akt1 (P31749 whole entry): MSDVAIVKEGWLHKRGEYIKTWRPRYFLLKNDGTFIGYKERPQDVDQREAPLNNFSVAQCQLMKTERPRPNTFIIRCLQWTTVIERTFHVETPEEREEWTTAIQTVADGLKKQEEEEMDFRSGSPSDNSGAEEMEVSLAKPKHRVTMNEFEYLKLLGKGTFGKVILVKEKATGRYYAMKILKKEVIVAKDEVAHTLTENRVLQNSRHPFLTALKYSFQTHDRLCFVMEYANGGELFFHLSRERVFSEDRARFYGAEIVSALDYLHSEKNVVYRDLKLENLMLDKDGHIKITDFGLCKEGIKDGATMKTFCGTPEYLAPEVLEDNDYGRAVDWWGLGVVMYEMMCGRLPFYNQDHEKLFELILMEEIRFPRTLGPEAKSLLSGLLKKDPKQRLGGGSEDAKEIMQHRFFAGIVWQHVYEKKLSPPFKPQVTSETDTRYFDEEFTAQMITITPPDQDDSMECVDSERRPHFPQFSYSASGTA

Compound | pIC50 [1] | pIC50 [2] | pIC50 [3]
NC1(c2ccc(-c3nc4ncccn4c3-c3ccccc3)cc2)CCC1 [Example 1-0, 1-[4-(3-phenyl-imidazo[1,2-a]pyrimidin-2-yl)-phenyl]-cyclobutylamine] | 6.46 | 5.82 | 
Cc1ccn2c(-c3ccccc3)c(-c3ccc(C4(N)CCC4)cc3)nc2n1 [Example 1-1] |  | 5.70 | 
NC1(c2ccc(-c3nc4nc(C5CC5)ccn4c3-c3ccccc3)cc2)CCC1 [Example 1-2] |  | 5.74 | 
Cc1cnc2nc(-c3ccc(C4(N)CCC4)cc3)c(-c3ccccc3)n2c1 [Example 1-6] |  | 6.00 | 
COc1cnc2nc(-c3ccc(C4(N)CCC4)cc3)c(-c3ccccc3)n2c1 [Example 1-7] |  | 6.00 | 7.42
CCOc1cnc2nc(-c3ccc(C4(N)CCC4)cc3)c(-c3ccccc3)n2c1 [Example 1-8] |  | 5.64 | 
NC1(c2ccc(-c3nc4cc(-n5cccn5)ccn4c3-c3ccccc3)cc2)CCC1 [Example 1-11] | 6.99 | 5.82 | 7.43
CNC(=O)Nc1ccn2c(-c3ccccc3)c(-c3ccc(C4(N)CCC4)cc3)nc2c1 [Example 1-14] | 6.23 | 5.01 | 5.93
NC1(c2ccc(-c3nc4nc(O)ccn4c3-c3ccccc3)cc2)CCC1 [Example 2-1] | 6.26 | 5.27 | 
CCCOc1ccn2c(-c3ccccc3)c(-c3ccc(C4(N)CCC4)cc3)nc2n1 [Example 2-2] |  | 5.77 | 6.60
N#Cc1cccn2c(-c3ccccc3)c(-c3ccc(C4(N)CCC4)cc3)nc12 [Example 2-3] |  | 5.62 | 7.49
Cc1ccn2c(-c3ccccc3)c(-c3ccc(C4(N)CCC4)cc3)nc2c1 [Example 2-4] | 6.08 | 5.70 | 6.53
Cc1cccn2c(-c3ccccc3)c(-c3ccc(C4(N)CCC4)cc3)nc12 [Example 2-5] | 7.00 | 5.37 | 6.68
N#Cc1ccn2c(-c3ccccc3)c(-c3ccc(C4(N)CCC4)cc3)nc2c1 [Example 2-6] | 6.84 | 5.80 | 6.48
COc1ccn2c(-c3ccccc3)c(-c3ccc(C4(N)CCC4)cc3)nc2c1 [Example 2-8] | 7.02 | 5.74 | 6.63
CNC(=O)c1ccc2nc(-c3ccc(C4(N)CCC4)cc3)c(-c3ccccc3)n2c1 [Example 2-9] |  | 6.05 | 7.21
COCc1ccc2nc(-c3ccc(C4(N)CCC4)cc3)c(-c3ccccc3)n2c1 [Example 2-10] |  | 5.72 | 6.37
COc1cccn2c(-c3ccccc3)c(-c3ccc(C4(N)CCC4)cc3)nc12 [Example 2-12] |  | 5.89 | 6.80
CC(O)c1ccc2nc(-c3ccc(C4(N)CCC4)cc3)c(-c3ccccc3)n2c1 (centres unmarked) [Example 2-13] |  | 5.66 | 6.12
NC1(c2ccc(-c3nc4cc(CO)ccn4c3-c3ccccc3)cc2)CCC1 [Example 2-14] |  | 5.52 | 6.29
NC1(c2ccc(-c3nc4c(CO)cccn4c3-c3ccccc3)cc2)CCC1 [Example 2-15] |  | 5.49 | 6.79
NC1(c2ccc(-c3nc4ccc(Br)cn4c3-c3ccccc3)cc2)CCC1 [Example 2-16] |  | 5.72 | 6.32
COc1ccc2nc(-c3ccc(C4(N)CCC4)cc3)c(-c3ccccc3)n2c1 [Example 2-17] | 7.44 | 5.82 | 7.46
CCOc1cccn2c(-c3ccccc3)c(-c3ccc(C4(N)CCC4)cc3)nc12 [Example 2-19] |  | 5.80 | 7.03

Compound | pIC50 [1] | pIC50 [2] | pIC50 [3]
NC1(c2ccc(-c3nc4cc(-c5cn[nH]c5)ccn4c3-c3ccccc3)cc2)CCC1 [Example 2-22] | 6.73 | 5.82 | 6.85
COC(=O)c1cccn2c(-c3ccccc3)c(-c3ccc(C4(N)CCC4)cc3)nc12 [Example 2-23] | 7.33 | 5.01 | 6.00
COCCNCc1ccc2nc(-c3ccc(C4(N)CCC4)cc3)c(-c3ccccc3)n2c1 [Example 2-24] |  | 5.35 | 5.48
NC1(c2ccc(-c3nc4ccc(CO)cn4c3-c3ccccc3)cc2)CCC1 [Example 2-25] | 6.30 | 5.64 | 6.67
COc1ccc(COc2ccn3c(-c4ccccc4)c(-c4ccc(C5(N)CCC5)cc4)nc3n2)cn1 [Example 2-26] | 6.66 | 5.72 | 7.05
COCCOc1ccn2c(-c3ccccc3)c(-c3ccc(C4(N)CCC4)cc3)nc2n1 [Example 2-27] | 5.93 | 5.72 | 6.95
COc1cc(COc2ccn3c(-c4ccccc4)c(-c4ccc(C5(N)CCC5)cc4)nc3n2)ccn1 [Example 2-28] | 6.75 | 5.74 | 6.94
CCOc1ccn2c(-c3ccccc3)c(-c3ccc(C4(N)CCC4)cc3)nc2n1 [Example 2-29] | 6.72 | 5.74 | 
CC(C)Oc1ccn2c(-c3ccccc3)c(-c3ccc(C4(N)CCC4)cc3)nc2n1 [Example 2-30] |  | 5.64 | 6.33
NC1(c2ccc(-c3nc4nc(OC5CCCCC5)ccn4c3-c3ccccc3)cc2)CCC1 [Example 2-31] |  | 5.72 | 
NC1(c2ccc(-c3nc4nc(Oc5ccccc5)ccn4c3-c3ccccc3)cc2)CCC1 [Example 2-32] |  | 5.74 | 
CCc1cnc2nc(-c3ccc(C4(N)CCC4)cc3)c(-c3ccccc3)n2c1 [Example 2-33] | 6.42 | 6.00 | 6.73
COC(=O)c1ccc2nc(-c3ccc(C4(N)CCC4)cc3)c(-c3ccccc3)n2c1 [Example 2-36] |  | 5.00 | 5.99
NC1(c2ccc(-c3nc4c(Br)cccn4c3-c3ccccc3)cc2)CCC1 [Example 2-39] |  | 5.80 | 7.49
NC1(c2ccc(-c3nc4cc(Br)ccn4c3-c3ccccc3)cc2)CCC1 [Example 2-40] |  | 5.72 | 6.63
NC1(c2ccc(-c3nc4c(F)cccn4c3-c3ccccc3)cc2)CCC1 [Example 2-44] |  | 5.82 | 7.32
NC1(c2ccc(-c3nc4c(Cl)cccn4c3-c3ccccc3)cc2)CCC1 [Example 2-45] |  | 5.74 | 7.55
NC1(c2ccc(-c3nc4ccc(F)cn4c3-c3ccccc3)cc2)CCC1 [Example 2-46] |  | 5.74 | 7.23
C=Cc1cccn2c(-c3ccccc3)c(-c3ccc(C4(N)CCC4)cc3)nc12 [Example 2-49] |  | 5.06 | 6.52
NC1(c2ccc(-c3nc4cc(-c5ccccn5)ccn4c3-c3ccccc3)cc2)CCC1 [Example 2-111] |  | 5.74 | 6.85
NC(=O)/C=C/c1ccn2c(-c3ccccc3)c(-c3ccc(C4(N)CCC4)cc3)nc2c1 [Example 2-124] |  | 5.64 | 7.00
NC1(c2ccc(-c3nc4ccc(-c5cn[nH]c5)cn4c3-c3ccccc3)cc2)CCC1 [Example 2-132] |  | 5.77 | 7.40
N[C@]1(c2ccc(-c3nc4nc(O)ccn4c3-c3ccccc3)cc2)C[C@H](O)C1 [Example 3-0, 2-[4-(cis-1-amino-3-hydroxy-cyclobutyl)-phenyl]-3-phenyl-imidazo[1,2-a]pyrimidin-7-ol] | 6.42 |  | 
